According to patent US10647680B2, “Urea compound, preparation method therefor and medical use thereof” (Ancureall Pharmaceutical (Shanghai) Co., Ltd., priority 2016, dated 2020):
Values belong to the molecule of their own block, whether it stands above or below them.

Tests used:
Format in all cases: cell-based
[1] = test system: Kasumi-1 (c-Kit N822K mutant type); assay: In vitro growth inhibition (GI50), Kasumi-1; settings: Homo sapiens, Cell lines of leukemia, read-out: GI 50 Kasumi-1 Kit (N822K)
Outline: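 After 3–5 days of treatment (top concentration 5,000 nM, serially diluted 2- or 10-fold to 0.01 nM, solvent ≤1%), viability was read by CCK8 at OD450. Growth rate was normalised to the time-zero and solvent-control wells, and GI50 was derived from the curve. Cultures in RPMI1640 + 10% FBS.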

HCC1954 (HER2/ErbB2 amp) = assay: In vitro growth inhibition (GI50), HCC1954; settings: Homo sapiens
Source text: (§1) Tumor cell line is an effective cell model for studying the inhibition of tumor cell growth or proliferation in vitro. In the present invention, a representative tumor cell line was selected to determine the cell growth inhibition activity of the present compound. All cell lines used were from ATCC, DSMZ, and the Cell Bank of the Chinese Academy of Sciences. Cell culture conditions and methods were in accordance with the requirements of each cell line. Cells were subcultured in vitro for no more than 3 passages each time, and as required, single-clone purification and identification of cell lines could be carried out.
(§2) The cell culture media used were RPMI1640 (Gibco), MEM (Gibco), McCOY'S5A (Gibco), and IMDM (Gibco). The complete medium was prepared by supplement with 5˜20% fetal calf serum (Gibco), 1% double-antibiotics (10000 units/mL penicillin and 10000 units/mL), 2 mM glutamine or 1 mM sodium pyruvate, respectively.
(§3) Human gastric cancer cell line NCI-N87 (HER2/ErbB2 amp, ATCC), human breast cancer cell line HCC1954 (HER2/ErbB2 amp, ATCC) and ZR-75-30 (HER2/ErbB2 amp, ATCC), human adenocarcinoma cell line AU565 (HER2/ErbB2 amp, ATCC), human lung squamous cell carcinoma cell line NCI-H2170 (HER2/ErbB2 amp, ATCC), human bronchioalveolar adenocarcinoma cell line NCI-H1781 (HER2/ErbB2 Ins G776V,C mutant type, ATCC) were cultured with a 1×RPMI1640 complete medium (10% FBS), respectively. Human lung adenocarcinoma cell line Calu-3 (HER2/ErbB2 amp, ATCC) was cultured with 1×MEM, 10% FBS, 1% double antibody, 1% NEAA (Gibco), 2 mM glutamine and 1 mM sodium pyruvate. The human breast cancer cell line SK-BR-3 (HER2/ErbB2 amp, ATCC) was cultured with a McCOY'S5A complete medium (10% FBS).
(§4) Adherent cells were digested with 0.25% pancreatin-EDTA (Gibco). The suspension cells were collected by centrifugation. The supernatant was discarded and the cell pellet was resuspended and counted. Different cell concentrations (5˜10×10^4 cells/mL) were prepared according to the growth cycle of each cell line and then seeded on a 96-well plate (Corning), 100 μL/well. The cells were incubated overnight at 37° C., 5% CO2. The compounds were added to the cells on the second day with 2 wells in parallel. The final concentration of organic solvent shall not exceed 1%. The cells were continually incubated for 3 to 5 days, and then subjected to MTT assay.
(§5) The compound of the present invention and the control compound were dissolved in DMSO (Sigma) respectively, with the purity of more than 98%. The compound was stored in a concentration of 10 mM at −20° C. and diluted to 2- or 10-fold series prior to use.
(§6) Dojindo CCK8 reagent kit was used as MTT assay. THERMO […] FC meter was used as microplate reader.
(§7) For adherent cells, culture medium was removed and immediately replaced with the fresh prepared medium which contains 10% CCK8 reagent (100 μL/well). For the suspension cells, CCK8 was directly added to 10% of the final concentration. The cells were continually incubated for 1˜4 h. When a dark yellow color could be observed in the solvent control wells, the absorbance value at OD450 nm was measured and the cell growth rate was calculated according to the following formula: Cell Growth Rate (%)=100*(T−T0)/(C−T0) T=optical density of drug treatment cell well—optical density of blank control well; T0=optical density of cell well before drug treatment—optical density of blank control well; C=optical density of cell well of solvent control group—optical density of blank control well. The concentration value of 50% inhibition of cell growth (GI50) was calculated according to the drug concentration and cell growth rate curve. The experiment was independently repeated 1˜3 times, and subject to biological statistical analysis. 4. Experimental Results
(§8) Tumor cell growth inhibition test was performed by selecting representative compounds (compounds 4, 11, 12, 16, 27, 68, 71, 77, 79, 89 and 116 of the present invention). […]

[2] = test system: NCI-H1781 (HER2/ErbB2 Ins G776V,C mutant type); assay: In vitro growth inhibition (GI50), NCI-H1781; settings: Homo sapiens
Source text: as §1, §2, §3, §4, §5, §6, §7, §8

Calu-3 (HER2/ErbB2 amp) = assay: In vitro growth inhibition (GI50), Calu-3; settings: Homo sapiens
Source text: as §1, §2, §3, §4, §5, §6, §7, §8

Compound: CC(C)(C)c1cc(NC(=O)Nc2ccc(-n3cnc4cc(OCCN5CCOCC5)ccc43)cc2)no1 [Compound 16, 1-(5-tert-butyl-isoxazol-3-yl)-3-{4-[5-(2-morpholin-4-yl-ethoxyl)-benzimidazol-1-yl]-phenyl}-urea]
GI50 [1]: > 1000 nM
GI50 (HCC1954 (HER2/ErbB2 amp)): > 2500 nM
GI50 [2]: > 2500 nM
GI50 (Calu-3 (HER2/ErbB2 amp)): > 2500 nM

Compound: COCCOc1ccc2c(c1)ncn2-c1ccc(NC(=O)Nc2cc(C(C)(C)C)n[nH]2)cc1 [Compound 77, 1-(5-tert-butyl-2H-pyrazol-3-yl)-3-{4-[5-(2-methoxyl-ethoxyl)-benzimidazol-1-yl]-phenyl}-urea]
GI50 [1]: > 1000 nM
GI50 (HCC1954 (HER2/ErbB2 amp)): > 2500 nM
GI50 [2]: > 2500 nM
GI50 (Calu-3 (HER2/ErbB2 amp)): > 2500 nM

Compound: CC(C)(C)c1cc(NC(=O)Nc2ccc(-n3cnc4ccc(OCCN5CCOCC5)cc43)cc2)no1 [Compound 27, 1-(5-tert-butyl-isoxazol-3-yl)-3-{4-[6-(2morpholin-4-yl-ethoxyl)-benzimidazol-1-yl]-phenyl}-urea]
GI50 [1]: > 1000 nM
GI50 (HCC1954 (HER2/ErbB2 amp)): > 2500 nM
GI50 [2]: > 2500 nM
GI50 (Calu-3 (HER2/ErbB2 amp)): > 2500 nM

Compound: CC(C)(C)c1cc(NC(=O)Nc2ccc(-n3cnc4cc(O)ccc43)cc2)no1 [Compound 4, 1-(5-tert-butyl-isoxazol-3-yl)-3-[4-(5-hydroxy-benzimidazol-1-yl)-phenyl]-urea]
GI50 [1]: 100 to 1000 nM
GI50 (HCC1954 (HER2/ErbB2 amp)): > 2500 nM
GI50 [2]: > 2500 nM
GI50 (Calu-3 (HER2/ErbB2 amp)): > 2500 nM

Compound: CC(C)(C)c1cc(NC(=O)Nc2ccc(-n3cnc4cc(OCCO)ccc43)cc2)no1 [Compound 11, 1-(5-tert-butyl-isoxazol-3-yl)-3-{4-[5-(2-hydroxy-ethoxyl)-benzimidazol-1-yl]-phenyl]-urea]
GI50 [1]: > 1000 nM
GI50 (HCC1954 (HER2/ErbB2 amp)): > 2500 nM
GI50 [2]: > 2500 nM
GI50 (Calu-3 (HER2/ErbB2 amp)): > 2500 nM

The next lines start with results.

GI50 (HCC1954 (HER2/ErbB2 amp)): > 2500 nM
GI50 [2]: > 2500 nM
GI50 (Calu-3 (HER2/ErbB2 amp)): > 2500 nM
Compound: CC(C)(C)c1cc(N)n(C(=O)Nc2ccc(-n3cnc4ccccc43)cc2)n1 [Compound 116, 5-amino-3-tert-butyl-pyrazol-1-carboxylic acid (4-benzimidazol-1-yl-phenyl)-amide]
GI50 [1]: > 1000 nM

GI50 (HCC1954 (HER2/ErbB2 amp)): > 2500 nM
GI50 [2]: > 2500 nM
GI50 (Calu-3 (HER2/ErbB2 amp)): > 2500 nM
Compound: CC(C)(C)c1cc(NC(=O)Nc2ccc(-n3cnc4cc(OCCO)ccc43)cc2)[nH]n1 [Compound 79, 1-(5-tert-butyl-2H-pyrazol-3-yl)-3-{4-[5-(2-hydroxy-ethoxyl)-benzimidazol-1-yl]-phenyl]urea]
GI50 [1]: > 1000 nM

GI50 (HCC1954 (HER2/ErbB2 amp)): > 2500 nM
GI50 [2]: > 2500 nM
GI50 (Calu-3 (HER2/ErbB2 amp)): > 2500 nM
Compound: CC(C)(C)c1cc(NC(=O)Nc2ccc(-n3cnc4cc(OCCN5CCOCC5)ccc43)cc2)[nH]n1 [Compound 89, 1-(5-tert-butyl-2H-pyrazol-3-yl)-3-{4-[5-(2-morpholin-4-yl-ethoxyl)-benzimidazol-1-yl]-phenyl}-urea]
GI50 [1]: 100 to 1000 nM

GI50 (HCC1954 (HER2/ErbB2 amp)): > 2500 nM
GI50 [2]: > 2500 nM
GI50 (Calu-3 (HER2/ErbB2 amp)): > 2500 nM
Compound: COc1ccc2c(c1)ncn2-c1ccc(NC(=O)Nc2cc(C(C)(C)C)n[nH]2)cc1 [Compound 71, 1-(5-tert-butyl-2H-pyrazol-3-yl)-3-[4-(5-methoxyl-benzimidazol-1-yl)-phenyl]-urea]
GI50 [1]: > 1000 nM

GI50 (HCC1954 (HER2/ErbB2 amp)): > 2500 nM
GI50 [2]: > 2500 nM
GI50 (Calu-3 (HER2/ErbB2 amp)): > 2500 nM
Compound: CC(C)(C)c1cc(NC(=O)Nc2ccc(-n3cnc4ccccc43)cc2)[nH]n1 [Compound 68, 1-(4-benzimidazol-1-yl-phenyl)-3-(5-tert-butyl-2H-pyrazol-3-yl)-urea]
GI50 [1]: > 1000 nM
